Experimental data published in ChEMBL document CHEMBL1129312, “Aminodiol HIV protease inhibitors. Synthesis and structure-activity relationships of P1/P1' compounds: correlation between lipophilicity and cytotoxicity” (J Med Chem, 1996).
pEC50, pIC50: −log10 of the molar value.

Key:
[1] = tested on: CEM-SS; test: Inhibitory activity against HIV-1 virus replication as determined by an XTT endpoint by 50%; format: functional; details: Homo sapiens, read-out: ED50 (the source's name)
[2] = Lipophilicity index (RP-HPLC pH 7); format: physicochemical; details: buffer
[3] = tested on: H9; test: Inhibitory activity against human T cell lymphoma (H9) growth by 50 %.; format: functional
[4] = molecular target: Human immunodeficiency virus type 1 protease (Human immunodeficiency virus 1, UniProt Q72874); test: Inhibitory activity against HIV-1 protease cleavage of [V-S-Q-N-(beta-naphthylalanine)-P-I-V)
[5] = Plasma elimination half life was determined for the compound; format: ADME, cell-free
[6] = In vitro therapeutic index was evaluated; format: functional
[7] = tested on: CEM-SS; test: Inhibitory activity against HIV-2 virus replication as determined by an XTT endpoint by 50%; format: functional; details: Homo sapiens, read-out: ED50 (the source's name)

SMILES | pEC50 [1] | Log k' [2] | CC50 [3] [nM] | pIC50 [4] | half-life [5] [h] | Therapeutic index [6] | pEC50 [7]
CN1CCN(CCOc2ccc(C[C@H](NC(=O)OC(C)(C)C)[C@H](O)CNC[C@@H](O)[C@H](Cc3ccccc3)NC(=O)OC(C)(C)C)cc2)C1=O | 7.30 | 1.04 | 50000 | 7.22 |  |  | 
CC(C)(C)OC(=O)N[C@@H](Cc1ccccc1)[C@H](O)CNC[C@@H](O)[C@H](Cc1ccccc1O)NC(=O)OC(C)(C)C | 5.92 | 1.16 | 17000 | 6.52 |  |  | 
CC(C)(O)COc1ccc(C[C@H](NC(=O)OC(C)(C)C)[C@H](O)CNC[C@@H](O)[C@H](Cc2ccccc2)NC(=O)OC(C)(C)C)cc1 | 7.05 | 1.22 | 49000 | 6.92 |  |  | 
CC(C)(C)OC(=O)N[C@@H](Cc1ccccc1)[C@H](O)CNC[C@@H](O)[C@H](Cc1ccncc1)NC(=O)OC(C)(C)C | 6.27 | 0.8 | 67000 | 6.40 |  |  | 
CC(C)(C)OC(=O)N[C@@H](Cc1ccccc1)[C@H](O)CNC[C@@H](O)[C@H](Cc1ccccc1)NC(=O)OC(C)(C)C | 7.10 | 1.39 | 8500 |  | 4 | 100 | 6.92
CC(C)(C)OC(=O)N[C@@H](Cc1ccccc1)[C@H](O)CNC[C@@H](O)[C@H](Cc1ccc(OCCO)cc1)NC(=O)OC(C)(C)C | 7.22 | 0.82 | 56000 | 7.19 |  |  | 
CC(C)(C)OC(=O)N[C@@H](Cc1ccccc1)[C@H](O)CNC[C@@H](O)[C@H](Cc1ccc(OCC(=O)N2CCOCC2)cc1)NC(=O)OC(C)(C)C | 7.00 | 0.87 | > 100000 | 7.00 |  |  | 
CC(C)(C)OC(=O)N[C@@H](Cc1ccccc1)[C@H](O)CNC[C@@H](O)[C@H](Cc1ccc(COC(=O)N2CCOCC2)cc1)NC(=O)OC(C)(C)C | 7.40 | 1.23 | 27000 | 7.52 |  |  | 
CC(C)(C)OC(=O)N[C@@H](Cc1ccccc1)[C@H](O)CNC[C@@H](O)[C@H](Cc1ccc(OCCN2CCOCC2)cc1)NC(=O)OC(C)(C)C | 7.15 | 1.18 | 25000 | 7.00 |  |  | 
CC(C)(C)OC(=O)N[C@@H](Cc1ccccc1)[C@H](O)CNC[C@@H](O)[C@H](Cc1ccc(OCCn2ccnc2)cc1)NC(=O)OC(C)(C)C | 7.30 | 0.96 | 22000 | 7.05 |  |  | 
CC(C)(C)OC(=O)N[C@@H](Cc1ccccc1)[C@H](O)CNC[C@@H](O)[C@H](Cc1ccc(OCCCc2nc3ccccc3o2)cc1)NC(=O)OC(C)(C)C | 5.82 | 1.98 | 5900 | 6.55 |  |  | 
CC(C)(C)OC(=O)N[C@@H](Cc1ccccc1)[C@H](O)CNC[C@@H](O)[C@H](Cc1ccc(OCc2ccccc2)cc1)NC(=O)OC(C)(C)C | 6.77 | 2 | 1800 | 6.52 |  |  | 
CC(C)(C)OC(=O)N[C@@H](Cc1ccccc1)[C@H](O)CNC[C@@H](O)[C@H](Cc1ccc(OCCc2ccccn2)cc1)NC(=O)OC(C)(C)C | 7.40 | 1.39 | 5000 | 7.30 |  |  | 
CC(C)(C)OC(=O)N[C@@H](Cc1ccccc1)[C@H](O)CNC[C@@H](O)[C@H](Cc1ccc(OCC(=O)N2CCCCC2)cc1)NC(=O)OC(C)(C)C | 7.15 | 1.33 | 17000 | 7.05 |  |  | 
CC(C)(C)OC(=O)N[C@@H](Cc1ccccc1)[C@H](O)CNC[C@@H](O)[C@H](Cc1ccc2ncccc2c1)NC(=O)OC(C)(C)C | 7.52 |  | 15000 | 6.89 |  |  | 
COCCOc1ccc(C[C@H](NC(=O)OC(C)(C)C)[C@H](O)CNC[C@@H](O)[C@H](Cc2ccccc2)NC(=O)OC(C)(C)C)cc1 | 7.15 | 1.19 | 20000 | 7.14 |  |  | 
CC(C)(C)OC(=O)N[C@@H](Cc1ccccc1)[C@H](O)CNC[C@@H](O)[C@H](Cc1cccc(OCc2ccccc2)c1)NC(=O)OC(C)(C)C | 7.05 | 2.04 | 1900 | 6.85 |  |  | 
CN(C)C(=O)OCCOc1ccc(C[C@H](NC(=O)OC(C)(C)C)[C@H](O)CNC[C@@H](O)[C@H](Cc2ccccc2)NC(=O)OC(C)(C)C)cc1 | 6.92 | 1.24 | 16000 | 7.40 |  |  | 
CC(C)(C)OC(=O)N[C@@H](Cc1ccccc1)[C@H](O)CNC[C@@H](O)[C@H](Cc1ccc(O)cc1)NC(=O)OC(C)(C)C | 7.05 | 0.79 | 32000 | 7.00 |  |  | 
CC(C)(C)OC(=O)N[C@@H](Cc1ccccc1)[C@H](O)CNC[C@@H](O)[C@H](Cc1ccc(CCC(=O)N2CCOCC2)cc1)NC(=O)OC(C)(C)C | 6.68 | 1.03 | 58000 | 7.07 |  |  | 
CC(C)(C)OC(=O)N[C@@H](Cc1ccccc1)[C@H](O)CNC[C@@H](O)[C@H](Cc1ccc(OCCCN2CCOCC2)cc1)NC(=O)OC(C)(C)C | 7.40 | 1.28 | 17000 | 7.07 |  |  | 
CC(O)COc1ccc(C[C@H](NC(=O)OC(C)(C)C)[C@H](O)CNC[C@@H](O)[C@H](Cc2ccccc2)NC(=O)OC(C)(C)C)cc1 (stereo partly specified) | 7.15 | 1.02 | 22000 | 7.31 |  |  | 
CC(C)(C)OC(=O)N[C@@H](Cc1ccccc1)[C@H](O)CNC[C@@H](O)[C@H](Cc1cccc(O)c1)NC(=O)OC(C)(C)C | 6.82 | 0.92 | 17000 | 6.70 |  |  | 
CC(C)(C)OC(=O)N[C@@H](Cc1ccccc1)[C@H](O)CNC[C@@H](O)[C@H](Cc1ccc(OCC(=O)O)cc1)NC(=O)OC(C)(C)C | 4.13 | 0.12 | > 100000 | 6.82 |  |  | 
CC(C)(C)OC(=O)N[C@@H](Cc1ccccc1)[C@H](O)CNC[C@@H](O)[C@H](Cc1ccc(OCCOc2cccnc2)cc1)NC(=O)OC(C)(C)C | 7.40 | 1.25 | 18000 | 7.22 |  |  | 
CC(C)(C)OC(=O)N[C@@H](Cc1ccccc1)[C@H](O)CNC[C@@H](O)[C@H](Cc1ccc(OCc2nc3ccccc3o2)cc1)NC(=O)OC(C)(C)C | 6.96 | 1.69 | 1900 | 6.49 |  |  | 
CC(C)(C)OC(=O)N[C@@H](Cc1ccccc1)[C@H](O)CNC[C@@H](O)[C@H](Cc1ccc(OCC(O)c2ccccn2)cc1)NC(=O)OC(C)(C)C (stereo partly specified) | 6.70 | 0.81 | 58000 | 6.96 |  |  | 
CC(C)(C)OC(=O)N[C@@H](Cc1ccccc1)[C@H](O)CNC[C@@H](O)[C@H](Cc1ccc(OCCN2CCOC2=O)cc1)NC(=O)OC(C)(C)C | 7.10 | 0.82 | 52000 | 7.40 |  |  | 
COCCCCOc1ccc(C[C@H](NC(=O)OC(C)(C)C)[C@H](O)CNC[C@@H](O)[C@H](Cc2ccccc2)NC(=O)OC(C)(C)C)cc1 | > 7.52 | 1.6 | 12000 | 7.30 |  |  | 
CC(C)(C)OC(=O)N[C@@H](Cc1ccccc1)[C@H](O)CNC[C@@H](O)[C@H](Cc1ccc(OCCCN2CCOCC2=O)cc1)NC(=O)OC(C)(C)C | 7.25 | 0.92 | 59000 | 7.10 |  |  | 
